As a reminder, the EC50 is the midpoint of the concentration-response curve.

The source made the active and inactive calls. No cut-off for these calls is given here. Where only a bound is given, the exact number is not on record here.

From ChEMBL document CHEMBL1137621, “3-Nitro-4-amino benzoic acids and 6-amino nicotinic acids are highly selective agonists of GPR109b” (Bioorg Med Chem Lett, 2007) come the findings set out here.

The target in test [1] is T1, Hydroxycarboxylic acid receptor 2 (Homo sapiens, UniProt Q8TDS4). In words: Agonist activity at human GPR109a receptor transfected in CHOK1 cells at 30 uM assessed as reversal of forskolin induced cAMP elevating effect by whole cell assay. It is filed as functional, cell-based. Conditions: CHO-K1.
Test [2] addresses Hydroxycarboxylic acid receptor 3 (Homo sapiens, UniProt P49019). In words: Agonist activity at human GPR109b receptor transfected in CHOK1 cells assessed as reversal of forskolin-induced cAMP elevating effect by whole cell assay. It is filed as functional, cell-based, CHO-K1.
Test [3] deals with T1, Hydroxycarboxylic acid receptor 2. In words: Agonist activity at human GPR109a receptor transfected in CHOK1 cells assessed as reversal of forskolin induced cAMP elevating effect by whole cell assay. It is filed as functional, cell-based, CHO-K1.

T1 sequence (Q8TDS4 whole entry): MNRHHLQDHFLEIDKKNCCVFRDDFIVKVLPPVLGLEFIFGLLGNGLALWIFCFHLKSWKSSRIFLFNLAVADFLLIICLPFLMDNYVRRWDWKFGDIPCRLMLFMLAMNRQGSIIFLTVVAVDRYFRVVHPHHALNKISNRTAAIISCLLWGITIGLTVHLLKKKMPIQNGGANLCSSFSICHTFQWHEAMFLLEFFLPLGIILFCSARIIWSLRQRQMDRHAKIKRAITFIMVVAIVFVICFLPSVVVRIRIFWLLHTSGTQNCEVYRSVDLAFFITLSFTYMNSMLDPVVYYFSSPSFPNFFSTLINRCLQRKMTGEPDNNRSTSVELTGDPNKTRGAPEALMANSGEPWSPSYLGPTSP
Hydroxycarboxylic acid receptor 3, sequence (P49019 whole entry): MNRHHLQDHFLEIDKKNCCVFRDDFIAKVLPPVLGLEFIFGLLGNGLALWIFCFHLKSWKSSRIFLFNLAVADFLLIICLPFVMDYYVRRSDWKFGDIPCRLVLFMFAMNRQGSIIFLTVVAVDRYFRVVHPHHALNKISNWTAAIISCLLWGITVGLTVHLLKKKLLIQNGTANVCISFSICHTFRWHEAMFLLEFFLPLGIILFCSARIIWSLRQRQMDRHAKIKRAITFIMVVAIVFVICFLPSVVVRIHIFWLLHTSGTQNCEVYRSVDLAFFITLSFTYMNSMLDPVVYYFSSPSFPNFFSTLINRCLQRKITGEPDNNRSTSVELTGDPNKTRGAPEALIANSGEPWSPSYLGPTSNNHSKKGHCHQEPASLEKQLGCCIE

In the case of `O=C(O)c1ccc(Nc2ccccc2)c([N+](=O)[O-])c1`, the outcome in test [1] was inactive. Besides, the EC50 in test [2] is 2.45 µM.
As to `O=C(O)c1ccc(NC2CC2)c([N+](=O)[O-])c1`, in test [1], the result was inactive. For the same compound, the EC50 in test [2] is 0.309 µM.
With `CCCN(CCC)c1ccc(C(=O)O)cc1[N+](=O)[O-]`, the result in test [1] was inactive. The EC50 in test [2] is 0.12 µM.
For `COCCNc1ccc(C(=O)O)cc1[N+](=O)[O-]`, in that order: “inactive” and 0.589 µM.
For `COCC(C)Nc1ccc(C(=O)O)cn1` (centres undefined), in that order: “inactive” and 3.24 µM.
Take `O=C(O)c1ccc(NC2CC2)nc1`: the outcome in test [1] was inactive. In addition, in test [2], the EC50 was 0.324 µM.
For the compound `CCCNc1ccc(C(=O)O)cn1`, the outcome in test [1] was inactive. The EC50 in test [2] is 0.0513 µM.
In the case of `CCCCCNc1ccc(C(=O)O)cc1[N+](=O)[O-]`, in test [1], the result was inactive. In addition, the EC50 in test [2] is 0.282 µM.
Regarding `CC(C)CNc1ccc(C(=O)O)cn1`, the values for the concentration for a half-maximal effect (EC50) in test [2] and in test [3] were 1.07 µM and 35 µM, respectively.
Consider `CCC(CC)Nc1ccc(C(=O)O)cc1[N+](=O)[O-]`, for which, in test [1], the outcome was inactive. For the same compound, in test [2], the EC50 is 0.0575 µM.
For the compound `CCC(C)Nc1ccc(C(=O)O)cc1[N+](=O)[O-]` (centres undefined), the result in test [1] was inactive. Besides, in test [2], the EC50 was 0.151 µM.
As to `C=CCNc1ccc(C(=O)O)cn1`, in test [1], the outcome was inactive. Besides, the EC50 in test [2] was 0.0708 µM.
With `CCNc1ccc(C(=O)O)cc1[N+](=O)[O-]`, the outcome in test [1] was inactive. Besides, the EC50 in test [2] is 0.229 µM.
With `CCCN(CCC)c1ccc(C(=O)O)cn1`, the result in test [1] was inactive. In test [2], the EC50 is 6.31 µM.
Take `O=C(O)c1ccc(NC2CCC2)nc1`: the result in test [1] was inactive. Further, the EC50 in test [2] was 0.0724 µM.
On to `CN(C)c1ccc(C(=O)O)cn1`, for which the result in test [1] was inactive. In test [2], the EC50 was over 10 µM.
`O=C(O)c1ccc(Nc2ccccc2)nc1`: in test [1], the result was inactive. Besides, the EC50 in test [2] was 3.24 µM.
On the same counts, the results for `O=C(O)c1ccc(N2CCCC2)c([N+](=O)[O-])c1` are “inactive” and over 10 µM.
Regarding `CC(C)C(C)Nc1ccc(C(=O)O)cc1[N+](=O)[O-]` (centres undefined), in test [1], the outcome was inactive. The EC50 in test [2] was 0.363 µM.
As to `O=C(O)c1ccc(N2CCCC2)nc1`, the outcome in test [1] and in test [2] (CHO-K1) was inactive.
With `CCCCCNc1ccc(C(=O)O)cn1`, the result in test [1] was inactive. For the same compound, the EC50 in test [2] was 0.151 µM.
As for `CNc1ccc(C(=O)O)cn1`, the result in test [1] was inactive. The EC50 in test [2] was 7.41 µM.
For the compound `O=C(O)c1ccc(NC2CCCC2)nc1`, the result in test [1] was inactive. The EC50 in test [2] was 0.389 µM.
With `O=C(O)c1ccc(NC2CCCC2)c([N+](=O)[O-])c1`, the result in test [1] was inactive. Moreover, the EC50 in test [2] is 0.309 µM.
For `CCCCNc1ccc(C(=O)O)cn1`, in that order: “inactive” and 0.1 µM.
Consider `CC(C)Nc1ccc(C(=O)O)cc1[N+](=O)[O-]`, for which the outcome in test [1] was inactive. For the same compound, in test [2], the EC50 is 0.257 µM.
For `CCCN(C)c1ccc(C(=O)O)cc1[N+](=O)[O-]`, in test [1], the result was inactive. Besides, the EC50 in test [2] was 0.0525 µM.
Turning to `CCCCNc1ccc(C(=O)O)cc1[N+](=O)[O-]`, the outcome in test [1] was inactive. Also, in test [2], the EC50 is 0.158 µM.
In the case of `CN(C)c1ccc(C(=O)O)cc1[N+](=O)[O-]`, in test [1], the outcome was inactive. Further, the concentration giving a half-maximal response (EC50) in test [2] was 2.04 µM.
`O=C(O)c1ccc(NC(=O)c2ccccc2)nc1`: the outcome in test [1] was inactive. Also, the half-maximal effective concentration (EC50) in test [2] was 1.58 µM.
On the same counts, the results for `CNc1ccc(C(=O)O)cc1[N+](=O)[O-]` are “inactive” and 1.91 µM.
For `CCN(CC)c1ccc(C(=O)O)cc1[N+](=O)[O-]`, in that order: “inactive” and 0.631 µM.
As for `O=C(O)c1ccc(NCC2CCCO2)nc1` (centres undefined), in test [1], the outcome was inactive. Besides, the EC50 in test [2] is 0.603 µM.
Consider `CC(C)C(C)Nc1ccc(C(=O)O)cn1` (centres undefined), for which the result in test [1] was inactive. Further, the EC50 in test [2] was 1.32 µM.
Consider `CCCN(C)c1ccc(C(=O)O)cn1`, for which the outcome in test [1] was inactive. For the same compound, the EC50 in test [2] is 1.62 µM.
As for `O=C(O)c1ccc(NCC2CCCO2)c([N+](=O)[O-])c1` (centres undefined), in test [1], the outcome was inactive. The EC50 in test [2] was 0.309 µM.
Take `CCC(CC)Nc1ccc(C(=O)O)cn1`: the concentration for a half-maximal effect (EC50) in test [2] was 0.269 µM; in test [3] it was 20 µM.
With `C=CCNc1ccc(C(=O)O)cc1[N+](=O)[O-]`, in test [1], the outcome was inactive. The EC50 in test [2] was 0.1 µM.
With `CC(C)Nc1ccc(C(=O)O)cn1`, in test [1], the result was inactive. Also, the EC50 in test [2] is 0.603 µM.
With `O=C(O)c1ccc(NC(=O)c2ccccc2)c([N+](=O)[O-])c1`, in test [1], the result was inactive. Besides, the EC50 in test [2] was 3.09 µM.
On the same counts, the results for `COCCNc1ccc(C(=O)O)cn1` are “inactive” and 0.933 µM.
Take `CCNc1ccc(C(=O)O)cn1`: the outcome in test [1] was inactive. Also, the EC50 in test [2] is 0.398 µM.
Consider `COCC(C)Nc1ccc(C(=O)O)cc1[N+](=O)[O-]` (centres undefined), for which, in test [1], the result was inactive. The EC50 in test [2] was 1.41 µM.
On to `CCCNc1ccc(C(=O)O)cc1[N+](=O)[O-]`, for which, in test [1], the result was inactive. Also, the half-maximal effective concentration (EC50) in test [2] was 0.0295 µM.
Consider `CCN(CC)c1ccc(C(=O)O)cn1`, for which the result in test [1] was inactive. Also, the half-maximal effective concentration (EC50) in test [2] was over 10 µM.
On the same counts, the results for `O=C(O)c1ccc(NC2CCC2)c([N+](=O)[O-])c1` are “inactive” and 0.2 µM.
For `CCC(C)Nc1ccc(C(=O)O)cn1` (centres undefined), in that order: “inactive” and 0.38 µM.
